pKd: −log10 of the molar value. Values after ≈ are worked out from the molar mass of the structure shown. Where a SMILES comes first, the peptide text is derived from it. Bridges are numbered along the chain shown (N, C = ends). Roman numbers before positions name the chains, in order. [ ]: non-standard residue; d: D form. Tle = CC(C)(C)[C@H](N)C(=O)O; dDab = NCC[C@@H](N)C(=O)O; hSer = N[C@@H](CCO)C(=O)O; Orn = NCCC[C@H](N)C(=O)O; Dab = NCC[C@H](N)C(=O)O
What was measured:
[1] = tested on: Escherichia coli (clinical isolate); assay type: cell-based; settings: for MBC (complete killing) against E. coli: clinical isolate, 3 h
Description: (§1) Figure 2 Determination of MBC values for (A) E. coli and (B) P. aeruginosa. Surviving bacterial colonies were detected after incubation with tested peptides for 3 h in MHB.
(§2) Bacterial strains used in this study were clinical isolates of Escherichia coli and Pseudomonas aeruginosa provided by Utrecht University Medical Center, Department of Medical Microbiology, Utrecht, The Netherlands. Both strains were cultured in Mueller Hinton broth (MHB) (Millipore, Sigma-Aldrich).
(§3) Logarithmic growth phase of an o/n bacterial culture was obtained by diluting it 1:100 in MHB and then incubating it for 3 h at 37 °C while shaking. After that, the OD620 of the bacterial suspension was measured and the bacterial solution was diluted to 2 × 10^6 colony forming units/mL (CFU/mL). Bacteria and peptides in MHB were mixed 1:1 (v/v) and incubated for 3 h at 37 °C in a polypropylene round-bottom 96 well-plate (Corning Costar, Glendale, AZ). Subsequently, 10-fold dilutions were made and plated out on Tryptone Soy Agar (TSA) plates and incubated for 24 h at 37 °C to count colonies.

[2] = tested on: Pseudomonas aeruginosa (clinical isolate); assay type: cell-based; settings: 3 h
Description: as §1, §2, §3

[3] = tested on: E. coli O111:B4 LPS stimulated RAW264.7 macrophages; experiment: Nitric oxide inhibition assay (Griess), E. coli O111:B4 LPS; assay type: cell-based; settings: 0–5 μM peptide; for inhibition of LPS-induced nitric oxide production (in words): smooth E. coli O111:B4 LPS 20 ng/mL, 24 h
Description: (§4) Figure 3 Nitric oxide inhibition in LPS stimulated RAW264.7 by peptide antibiotics. RAW264.7 cells were stimulated with smooth type LPSs (A) E. coli O111:B4 LPS and (B) P. aeruginosa LPS and rough type LPS (C) E. coli K-12 LPS in the presence of different concentrations of peptides: CPA, murepavadin, MHM, PMB, and PMBN. NO production was measured by Griess assay. Shown are the mean ± SEM of three independent experiments. (D) Schematic diagram of the general structure of lipopolysaccharides. It consists of three main subunits: lipid A, the core region, and the O-antigen. Lipid A and the core-region form rough (R)-type LPS. Lipid A, the core-region, and the O-antigen together form smooth (S)-type LPS.
(§5) RAW264.7 cells were seeded (5 × 10^4 cells/well) in a 96-well plate and left at 37 °C for overnight adherence. Then, cells were stimulated with […] types of LPS: 20 ng/mL LPS originating from E. coli O111:B4 (LPS-EB, InvivoGen), 50 ng/mL LPS from P. aeruginosa (PA-10 LPS, Sigma -Aldrich), and 5 ng/mL LPS from E. coli K-12 (LPS-EK, InvivoGen) in the presence of 0–5 μM peptides in DMEM for 24 h. After incubation, the nitrite content (corresponding to nitric oxide produced but quickly oxidized in watery solutions to nitrite) in the supernatant was measured using the Griess assay.[28]

[4] = tested on: P. aeruginosa 10 LPS stimulated RAW264.7 macrophages; experiment: Nitric oxide inhibition assay (Griess), P. aeruginosa 10 LPS; assay type: cell-based; settings: 0–5 μM peptide; for inhibition of LPS-induced nitric oxide production (in words): smooth P. aeruginosa 10 LPS 50 ng/mL, 24 h
Description: as §4, §5

[5] = tested on: E. coli K-12 LPS stimulated RAW264.7 macrophages; experiment: Nitric oxide inhibition assay (Griess), E. coli K-12 LPS; assay type: cell-based; settings: 0–5 μM peptide; for inhibition of LPS-induced nitric oxide production (in words): rough E. coli K-12 LPS 5 ng/mL, 24 h
Description: as §4, §5

[6] = tested on: E. coli O111:B4 LPS stimulated RAW264.7 macrophages; experiment: TNF-α release ELISA in LPS stimulated macrophages; assay type: cell-based; settings: 20 ng/mL E. coli O111:B4 LPS, 24 h; for concentration inhibiting TNF-α release: unable to inhibit up to highest concentration
Description: (§6) Figure 4 Peptides modulation of cytokine expression in RAW264.7 cells stimulated with LPS. RAW macrophages were stimulated with 20 ng/mL E. coli LPS in the presence of different concentrations of peptide antibiotics. (A) TNF-α and (B) IL-10 release was measured by ELISA in duplicates. Shown are the mean ± SEM of three independent experiments.
as §5
(§7) A sandwich ELISA was used to measure TNF-α and IL-10 concentrations in the supernatant of the same treatment (24 h) used for nitrite measurement, using ELISA Duoset kits (R&D systems, Minneapolis, MN) according to the manufacturer’s protocol.

[7] = tested on: E. coli O111:B4 LPS stimulated RAW264.7 macrophages; experiment: IL-10 release ELISA in LPS stimulated macrophages; assay type: cell-based; settings: 20 ng/mL E. coli O111:B4 LPS, 24 h; for concentration inhibiting IL-10 release: unable to inhibit up to highest concentration
Description: as §6, §5, §7

E. coli O111:B4 LPS = experiment: Isothermal titration calorimetry (ITC) of LPS binding; settings: 30 μM peptide, 200 μM LPS in 50% PBS, 37 °C, representative of two measurements
Description: Figure 6 (A) Binding profile of LPS and the peptides using ITC. Binding signatures (ΔG, ΔH. and −TΔS) plotted for binding events of LPS with peptides. (B) Spectra of the interaction between LPS and peptides. Murepavadin, PMB, MHM, PMBN, and CPA (30 μM) were titrated against 200 μM E. coli O111:B4 LPS, and heat rates were recorded. Shown is a representative of two measurements.
ITC measurements were performed in a low volume NanoITC (TA Instruments-Waters LLC, New Castle, DE). Two hundred micromolar LPS (from E. coli O111:B4) was prepared in 50% PBS. Peptides of 30 μM concentration were prepared in identical buffer. Three hundred microliters of the peptide solution was added to the chamber (chamber volume is 169 μL, so the rest of the volume flows out and rests around the chamber), and 50 μL of LPS was added to the syringe. At 37 °C, 2 μL of LPS solution was injected into the chamber every 300 s, except the first injection, which consists of 0.96 μL. The experiments were performed at 37 °C while stirring at 300 rpm. The data was analyzed with the NanoAnalyze Software (TA Instruments, Asse, Belgium).

[8] = tested on: RAW264.7 macrophages stimulated with treated P. aeruginosa; experiment: Silent killing: stimulation of macrophages with nonviable bacteria (TNF-α ELISA); assay type: cell-based; settings: bacteria 1 × 10^6 CFU/mL treated with 20 μM peptide 1 h at 37 °C, RAW264.7 2 h, three independent experiments
Description: Figure 7 (A) Determination of macrophage activation in response to viable and nonviable bacteria. P. aeruginosa was treated with gentamicin, heat treatment, CATH-2 (control), CPA, murepavadin, MHM, PMB, or PMBN (20 μM of each) and subsequently added to RAW264.7 macrophages. Production of TNF-α was measured using ELISA after 2 h of treatment. (B) Viability of P. aeruginosa after treatment was checked by plating on TSA plates. Data is plotted as the mean ± SEM of three independent experiments. Significant differences were determined by ordinary one-way ANOVA (Tukey’s multiple comparison test).
RAW264.7 cells were seeded (7.5 × 10^4 cells/well) as described above. P. aeruginosa (diluted to 1 × 10^6 CFU/mL in DMEM) was treated separately with heat (1 h at 90 °C), 1 mg/mL gentamicin (1 h at 37 °C), 20 μM CPA (1 h at 37 °C), 20 μM PMB (1 h at 37 °C), 20 μM murepavadin (1 h at 37 °C), 20 μM MHM (1 h at 37 °C), 20 μM CATH-2 (1 h at 37 °C), and DMEM only (untreated sample) (1 h at 4 °C). After treatment, the bacteria were added to the RAW264.7 cells for 2 h of incubation at 37 °C. After that, TNF-α production was determined in the supernatant by ELISA.

CC(C)C[C@@H]1NC(=O)[C@@H](Cc2ccccc2)NC(=O)[C@H](CCN)NC(=O)[C@@H](NC(=O)[C@H](CCN)NC(=O)[C@@H](NC(=O)[C@H](CCN)NC(=O)CC[C@@H]2NC(=O)[C@H](CCN)NC(=O)[C@H](Cc3ccc(O)cc3)NC(=O)[C@H]([C@@H](C)O)NC(=O)[C@H](C(C)C)NC(=O)[C@@H]3CCCN3C(=O)[C@@H](C)NC(=O)[C@H](CO)NC(=O)[C@H](C)NC(=O)[C@H](C(C)(C)C)NC(=O)[C@H](CCO)NC(=O)[C@H](Cc3c[nH]c4ccccc34)NC(=O)[C@H](CCO)NC(=O)[C@@H](CCN)NC2=O)[C@@H](C)O)CCNC(=O)[C@H]([C@@H](C)O)NC(=O)[C@H](CCN)NC(=O)[C@H](CCN)NC1=O [CPA] (I: cyclo([dDab][hSer]W[hSer][Tle]AS[dA]PVTY[Dab]E) / II: [Dab]T[Dab][Dab][Dab][dF]L[Dab][Dab]T; amide I:14-II:N (inferred); lactam II:4-II:C (inferred); ring closure inferred)
decrease in viable E. coli ([1]; at 1.25 μM peptide, from starting density of 10^6 CFU/mL, 3 h in MHB): 2 log
MBC (complete killing) against E. coli [1]: 10 µM (≈ 25.7 µg/mL)
MBC (complete killing) against P. aeruginosa [2]: 2.5 µM (≈ 6.41 µg/mL)
concentration that completely neutralized E. coli O111:B4 LPS (nitric oxide production) ([3]; 20 ng/mL LPS, 24 h in DMEM, Griess assay): 20 nM
inhibition of LPS-induced nitric oxide production (in words) [3]: dose-dependently active
concentration that almost completely neutralized P. aeruginosa 10 LPS (nitric oxide production) ([4]; 50 ng/mL LPS, 24 h in DMEM, Griess assay): 20 nM
inhibition of LPS-induced nitric oxide production (in words) [4]: dose-dependently active
concentration that neutralized E. coli K-12 LPS (nitric oxide production) ([5]; 5 ng/mL rough LPS, 24 h in DMEM, Griess assay): 5 µM
inhibition of LPS-induced nitric oxide production (in words) [5]: dose-dependently active
inhibition of TNF-α release (in words) [6]: sharply decreased the TNF-α and IL-10 release by RAW264.7 macrophages at a concentration of 5 nM
inhibition of IL-10 release (in words) [7]: sharply decreased the TNF-α and IL-10 release by RAW264.7 macrophages at a concentration of 5 nM
pKd (E. coli O111:B4 LPS): 5.11
macrophage activation (TNF-α) by peptide-treated P. aeruginosa compared to viable untreated bacteria [8]: significantly reduced immune response

CC(C)[C@@H]1NC(=O)[C@@H]2CCCN2C(=O)[C@@H](C)NC(=O)[C@H](CO)NC(=O)[C@H](C)NC(=O)[C@H](C(C)(C)C)NC(=O)[C@H](CCO)NC(=O)[C@H](Cc2c[nH]c3ccccc23)NC(=O)[C@H](CCO)NC(=O)[C@@H](CCN)NC(=O)[C@H](CCC(=O)O)NC(=O)[C@H](CCN)NC(=O)[C@H](Cc2ccc(O)cc2)NC(=O)[C@H]([C@@H](C)O)NC1=O [MHM] (cyclo(VTY[Dab]E[dDab][hSer]W[hSer][Tle]AS[dA]P))
MBC (complete killing) against E. coli [1]: > 20 µM
MBC (complete killing) against P. aeruginosa [2]: > 20 µM
concentration inhibiting TNF-α release [6]: > 5 µM
concentration inhibiting IL-10 release [7]: > 5 µM
pKd (E. coli O111:B4 LPS): 6.01
macrophage activation (TNF-α) by peptide-treated P. aeruginosa compared to viable untreated bacteria [8]: no significant reduction in macrophage activation

CC(C)C[C@@H]1NC(=O)[C@@H](Cc2ccccc2)NC(=O)[C@H](CCN)NC(=O)[C@@H](NC(=O)[C@H](CCN)NC(=O)[C@@H](N)[C@@H](C)O)CCNC(=O)[C@H]([C@@H](C)O)NC(=O)[C@H](CCN)NC(=O)[C@H](CCN)NC1=O [PMBN, polymyxin B nonapeptide] (H-T[Dab][Dab][Dab][dF]L[Dab][Dab]T; lactam 3-C (inferred); N-terminus assumed)
MBC (complete killing) against E. coli [1]: > 20 µM
MBC (complete killing) against P. aeruginosa [2]: > 20 µM
inhibition of LPS-induced nitric oxide production (in words) [3]: partially inhibited nitric oxide production only at 5 μM
inhibition of LPS-induced nitric oxide production (in words) [4]: partially inhibited nitric oxide production only at 5 μM
inhibition of IL-10 release (in words) [7]: inhibit IL-10 release dose-dependently but at concentrations much higher than those required for CPA or PMB
pKd (E. coli O111:B4 LPS): 5.42

CC[C@H](C)[C@@H]1NC(=O)[C@H](Cc2c[nH]c3ccccc23)NC(=O)[C@H]([C@@H](C)O)NC(=O)[C@@H]2CCCN2C(=O)[C@H]2CCCN2C(=O)[C@H](CO)NC(=O)[C@H](C)NC(=O)[C@H](CCN)NC(=O)[C@H](CCN)NC(=O)[C@H](Cc2c[nH]c3ccccc23)NC(=O)[C@H](CCN)NC(=O)[C@@H](CCN)NC(=O)[C@H](CCCN)NC(=O)[C@H](CCN)NC1=O [murepavadin] (cyclo(TWI[Dab][Orn][dDab][Dab]W[Dab][Dab]AS[dP]P))
MBC (complete killing) against E. coli [1]: > 20 µM
MBC (complete killing) against P. aeruginosa [2]: 5 to 10 µM
concentration inhibiting TNF-α release [6]: > 5 µM
concentration inhibiting IL-10 release [7]: > 5 µM
pKd (E. coli O111:B4 LPS): 5.69
macrophage activation (TNF-α) by peptide-treated P. aeruginosa compared to viable untreated bacteria [8]: no significant reduction in macrophage activation

polymyxin B [PMB]
inhibition of LPS-induced nitric oxide production (in words) [3]: dose-dependently active
inhibition of LPS-induced nitric oxide production (in words) [4]: dose-dependently active
inhibition of LPS-induced nitric oxide production (in words) [5]: dose-dependently active
inhibition of TNF-α release (in words) [6]: slightly less activity compared to CPA
inhibition of IL-10 release (in words) [7]: slightly less activity compared to CPA
pKd (E. coli O111:B4 LPS): 5.60
